Laboratory results reported in patent EP0847397B1, “WATER-SOLUBLE C-RING ANALOGUES OF 20 (S)-CAMPTOTHECIN” (DR. REDDY'S RESEARCH FOUNDATION, priority 1996, dated 1997).
Values after ≈ are worked out from the molar mass of the structure shown.

Key:
[1] = result in words, compared with 20(S)-camptothecin; cited from earlier work
[2] = tested on: NCI's 60 human tumor cell line assay; test: cells; type: cell-based; conditions: 60 cell, 48 h, read-out: IC50 (mean GI50 against NCI's 60 human tumor cell line assay)
Experimental: (§3) Each test compound was screened against a battery of 60 human cell lines obtained from eight organs. In a typical procedure, the cell suspensions that were diluted according to the particular cell type and the expected target cell density (5000-40,000 cells per well based on cell growth characteristics) were added into 96-well microtiter plates. Inoculates were allowed a preincubation period of 24h at 37°C. for stabilization. Dilutions at twice the intended test concentrations were added at time zero in 100-µl aliquots to microtiter plate wells. Usually test compounds were evaluated at five 10-fold dilutions. The highest well concentration used in the test is 10^-4M. The cells are then incubated in the presence of drug (the test compound) for further 48h in 5% CO2 atmosphere and 100% humidity. At the end of this time, the adherent cells are fixed to the plate by means of trichloroacetic acid, and after a number of washes, the cell layer is treated with the protein stain Sulforhodamine B. The optical density which is proportional to protein mass, is then read by automated spectrophotometric plate readers at a wavelength of 515 nm. Readings are transferred to a microcomputer and final reports are generated using especially developed software.

MOLT 4 = test: NCI in vitro 60 human tumor cell line assay; type: cell-based; conditions: MOLT-4, 48 h, read-out: Total Growth Inhibition (TGI)
Experimental: as §3

SF 295 = test: NCI in vitro 60 human tumor cell line assay; type: cell-based; conditions: SF-295, 48 h, read-out: Total Growth Inhibition (TGI)
Experimental: as §3

U 251 = test: NCI in vitro 60 human tumor cell line assay; type: cell-based; conditions: U-251, 48 h, read-out: Total Growth Inhibition (TGI)
Experimental: as §3

MCF 7 = test: NCI in vitro 60 human tumor cell line assay; type: cell-based; conditions: MCF7, 48 h, read-out: Total Growth Inhibition (TGI)
Experimental: as §3

HT 29 = test: NCI in vitro 60 human tumor cell line assay; type: cell-based; conditions: Homo sapiens, HT-29, 48 h, read-out: Total Growth Inhibition (TGI)
Experimental: as §3

[3] = MTD in Swiss albino mice (single dose); conditions: mouse, in vivo, 14 days observation
Experimental: 1. MTD in Swiss albino mice:
Each Swiss Albino mouse is injected with a single does of the test compound on a day designated as Day 1: Doses that were tested are 400, 200, 100, 50, 25, 12.5, 8.3, 6.25 and 3.13 mg/kg body weight. […] (As per the protocol followed by the U.S. National Cancer Institute)

[4] = Solubility by HPLC method; type: physicochemical; conditions: aqueous buffer, 0.1M sodium acetate buffer pH 5.0, 24 hours, room temperature
Experimental: 4. Solubility by HPLC method:
Excess of compound was soaked in 0.5 ml of 0.1M sodium acetate buffer at pH 5.0 for 24 hours at room temperature. The solution was filtered through 0.45 micron PVDF syringe filter (Gelman Sciences). The filtrate was injected into HPLC at different volumes (10 & 20 µl). Chromatograms were recorded. Responses recorded were extrapolated from the calibration curve and the solubility of the compound was calculated. (J. Med. Chem., 1995; 38: 400)

[5] = Solubility by routine method; type: physicochemical; conditions: deionized water, 37°C
Experimental: 5. Solubility by routine method:
Compound was suspended in 5 ml of deionized water and heated to 37°C. for 10 min. Then, the solution was filtered and the filtrate was evaporated to drying using methanol and the solid residue was weighed.

Pharmacokinetics at MTD = type: in vivo, Swiss albino mice; conditions: mouse, ip, intraperitoneal, plasma
Experimental: 3. Pharmacokinetics at MTD:
All studies were carried out in Swiss albino mice in the weight range 35-40 g. The animals were fasted overnight prior to dosage of the drug and were fed 3 hours after dosing. The animals were dosed intraperitonially as a solution in DMSO:water (50:50; v/v). Blood samples were drawn from orbital sinus at 1, 2, 4, 6 and 8 hours after administration of the dose into heparinized tubes, centrifuged at 13000 RPM for 10 min. Plasma samples were separated and analyzed by HPLC. To 50 µl of the sample, 100 µl of chilled acidified methanol was added and mixed to precipitate proteins. The sample was centrifuged at 13,000 RPM for 10 min. 100 µl of supernatant was made up to 200 µl with methanol:water (50:50; v/v) and 100 µl was injected on HPLC. Peak area of the drug was used for quantification. Calibration, control and recovery samples were prepared by spiking 50 µl of blank plasma with known amounts of the drug and processed in the same manner as the samples. (J. Natl. Cancer Inst., 1996; 88:817-824).

ACHN = test: In vitro activity after 1 hour exposure (Sulforhodamine B); type: cell-based; conditions: Homo sapiens, 1 hour exposure then 48 hours drug-free
Experimental: (§1) 6. In vitro activity after 1 hour exposure:
(§2) Grow the cells in 15 ml of Complete Medium (RPM1-1640 with 10% Fetal bovine serum and 0.2% NaHCO3) for 3-5 days to obtain a cell number of 10^6 cells/flask. The medium is removed and the attached cells are washed with Phosphate Buffered Saline (PBS). 1 ml of 0.1% Trypsin-EDTA is added and incubated for 5 min at 37°C. Tap the flasks gently and add 5 ml of complete medium. Remove cell suspension and centrifuge at 2000 rpm for 5 min. Discard the supernatant and suspend the pellet in 5 ml of complete medium. Count the cell number in a haemocytometer. Dilute the cell suspension to 10,000 cells/100 µl in complete medium. Plate out 100 µl of cell suspension in each of 96 well microtitre plate and incubate for 24 hrs at 37°C. and 5% CO2. Terminate the reference blank (plated out separately) with 25 µl of 50% cold Trichloroacetic acid (TCA). Incubate for 1 hour at 4°C. Wash the plate (five times) with deionized water. Air dry and preserve the plate at 4°C. for determination of T0 value. Prepare suitable dilution of the test compound in complete medium and add 100 µl to each well to maintain the final concentration ranging between 10^-4M and 10^-8M. Incubate for 1 hr at 37°C. and 5% CO2. Centrifuge the microtitre plate at 1000 rpm for 5 min. Remove the supernatant. Wash the cells twice with 100 µl of PBS to remove the traces of test compound. Add 200 µl of complete medium to each well and incubate for 48 hours at 37°C. and 5% CO2. Terminate the cell growth with the addition of 50 µl of 50% cold TCA. Incubate the plate for 1 hr at 4°C. Wash the plates with deionized water (five times) and air dry. Add 100 µl of Sulforhodamine B solution (0.4% in 1% acetic acid) to each well. Keep at room temperature for 15 minutes. Wash (five times) with 1% acetic acid and air dry. Add 100 µl of 10mM Trizma base (Sigma), shake gently on plate shaker for 15 minutes and read the optical density at 490 nm in Spectrophotometric plate reader. (as per the protocol followed by the U.S. National Cancer Institute.

DU-145 = test: as above; type: cell-based; conditions: Homo sapiens; DU-145, 1 hour exposure then 48 hours drug-free
Experimental: as §1, §2

HOP-62 = test: as above; type: cell-based; conditions: Homo sapiens; HOP-62, 1 hour exposure then 48 hours drug-free
Experimental: as §1, §2

MCF-7/ADR = test: as above; type: cell-based; conditions: Homo sapiens, NCI/ADR-RES, 1 hour exposure then 48 hours drug-free
Experimental: as §1, §2

OVCAR-8 = test: as above; type: cell-based; conditions: Homo sapiens; OVCAR-8, 1 hour exposure then 48 hours drug-free
Experimental: as §1, §2

SF-268 = test: as above; type: cell-based; conditions: Homo sapiens
Experimental: as §1, §2

UACC-62 = test: as above; type: cell-based; conditions: Homo sapiens; UACC-62, 1 hour exposure then 48 hours drug-free
Experimental: as §1, §2

For `CC=c1c2cc3ccccc3nc2c2cc3c(c(=O)n12)COC(=O)[C@]3(O)CC` [formula 11], the anti-tumor activity [1] is listed as “anti-tumor activity comparable to that of 20(S)-camptothecin”.
`CC[C@@]1(O)C(=O)OCc2c1cc1n(c2=O)C(OCC(F)(F)F)c2cc3ccccc3nc2-1` (stereo partly shown) [Example 25, 5-trifluoroethoxycamptothecin] showed a mean GI50 [2] of 1.82 µM, an IC (TGI) (MOLT 4) of 3 µM and an IC (TGI) (SF 295) of 2.15 µM. The IC (TGI) (U 251) was 3.57 µM, the IC (TGI) (MCF 7) was 9.2 µM and the IC (TGI) (HT 29) was 7.9 µM.
`CCOC1c2cc3c(O)cccc3nc2-c2cc3c(c(=O)n21)COC(=O)[C@]3(O)CC` (stereo partly shown) [Example 11, 5-Ethoxy-9-hydroxycamptothecin] gave an MTD at 336 h ([3]; intravenous) of 100 mg/kg, an MTD at 336 h ([3]; ip, intraperitoneal) of 400 mg/kg and a solubility at 24 h [4] of 170 µg/mL (≈ 416 µM). For the same compound, the solubility at 10 min [5] was < 1000 µg/mL, the AUC(0-t) (Pharmacokinetics at MTD; DMSO:water (50:50), read-out: AUC0-1) was 18.5 ± 2.1 µM·h and the Cmax (Pharmacokinetics at MTD) was 6.95 ± 1.2 µM. The Tmax (Pharmacokinetics at MTD) was 1 h, the half-life (Pharmacokinetics at MTD) was 1.92 ± 0.4 h and the k el (Pharmacokinetics at MTD) was 0.000103 s⁻¹. It also gave a GI50 (ACHN) of 0.55 µM, a GI50 (DU-145) of 0.35 µM and a GI50 (HOP-62) of 6 µM. It also gave a GI50 (MCF-7/ADR) of 1.5 µM, a GI50 (OVCAR-8) of 4.5 µM and a GI50 (SF-268) of 6 µM. It also gave a GI50 (UACC-62) of 40 µM and a mean GI50 [2] of 6.68 µM.
For 5-hydroxymethyl camptothecin, the anti-tumor activity [1] is given as “reduced anti-tumor activity”.
